Reference: ChEMBL document CHEMBL5465560, “Selectivity Literature for EUbOPEN Chemogenomic Library” (2024)

Experiments:
[1] = target: G protein-coupled receptor kinase 4 (Homo sapiens) (UniProt P32298); assay: Selectivity interaction (Kinase panel (Z-LYTE Assay)) EUB0001632a GRK4; conditions: at 10 µM
[2] = target: Insulin receptor (Homo sapiens, UniProt P06213); assay: Selectivity interaction (Kinase panel (33PanQinase(R) Activity Assay)) EUB0000877a INSR
[3] = target: T1, Testis-specific serine/threonine-protein kinase 1 (Homo sapiens) (UniProt Q9BXA7); conditions: at 10 µM
T1 sequence (whole entry): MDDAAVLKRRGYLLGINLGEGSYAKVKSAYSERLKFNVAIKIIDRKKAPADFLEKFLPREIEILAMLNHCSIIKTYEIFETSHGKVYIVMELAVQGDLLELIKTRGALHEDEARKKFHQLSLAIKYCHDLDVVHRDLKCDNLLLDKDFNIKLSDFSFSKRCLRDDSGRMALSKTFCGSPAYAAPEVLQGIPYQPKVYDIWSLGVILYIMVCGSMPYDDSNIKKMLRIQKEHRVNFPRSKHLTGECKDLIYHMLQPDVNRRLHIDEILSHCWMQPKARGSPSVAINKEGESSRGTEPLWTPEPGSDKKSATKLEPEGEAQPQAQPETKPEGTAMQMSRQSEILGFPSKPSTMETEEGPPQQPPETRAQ

[4] = target: G protein-coupled receptor kinase 4 (Homo sapiens) (UniProt P32298); assay: Selectivity interaction (Kinase panel (Invitrogen)) EUB0000639a GRK4; conditions: at 200 nM
[5] = target: Phosphatidylinositol 3-kinase catalytic subunit type 3 (Homo sapiens, UniProt Q8NEB9); assay: Selectivity interaction (ActivX KiNativ screen (kinase selectivity in THP-1 cell lysates)) EUB0000639a PIK3C3; type: subcellular; conditions: lysate, at 0.04 µM
[6] = target: T2, Serine/threonine-protein kinase Nek11 (Homo sapiens) (UniProt Q8NG66); assay: Selectivity interaction (ProQinase) EUB0000171b NEK11
T2 sequence (whole entry): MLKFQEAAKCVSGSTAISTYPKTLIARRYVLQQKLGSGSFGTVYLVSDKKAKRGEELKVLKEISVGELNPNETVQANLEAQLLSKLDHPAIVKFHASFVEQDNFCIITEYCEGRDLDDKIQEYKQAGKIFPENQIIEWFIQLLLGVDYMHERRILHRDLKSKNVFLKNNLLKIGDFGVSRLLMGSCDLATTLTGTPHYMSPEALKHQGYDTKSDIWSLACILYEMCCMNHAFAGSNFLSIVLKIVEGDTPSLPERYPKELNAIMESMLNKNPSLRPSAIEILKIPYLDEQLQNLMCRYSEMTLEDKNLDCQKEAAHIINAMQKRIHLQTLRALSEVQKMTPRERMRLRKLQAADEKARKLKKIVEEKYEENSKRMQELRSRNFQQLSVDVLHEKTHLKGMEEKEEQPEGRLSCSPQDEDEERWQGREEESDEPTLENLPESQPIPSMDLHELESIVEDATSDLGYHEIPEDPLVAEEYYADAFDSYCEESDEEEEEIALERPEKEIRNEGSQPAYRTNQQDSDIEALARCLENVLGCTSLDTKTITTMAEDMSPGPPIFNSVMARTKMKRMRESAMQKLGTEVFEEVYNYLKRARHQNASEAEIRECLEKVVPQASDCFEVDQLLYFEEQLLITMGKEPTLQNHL

[7] = target: T3, Vascular endothelial growth factor receptor 3 (Homo sapiens, UniProt P35916); assay: Selectivity interaction (KinomeScan (DiscoverX)) EUB0000695a FLT4; conditions: at 100 nM
T3 sequence (P35916 whole entry): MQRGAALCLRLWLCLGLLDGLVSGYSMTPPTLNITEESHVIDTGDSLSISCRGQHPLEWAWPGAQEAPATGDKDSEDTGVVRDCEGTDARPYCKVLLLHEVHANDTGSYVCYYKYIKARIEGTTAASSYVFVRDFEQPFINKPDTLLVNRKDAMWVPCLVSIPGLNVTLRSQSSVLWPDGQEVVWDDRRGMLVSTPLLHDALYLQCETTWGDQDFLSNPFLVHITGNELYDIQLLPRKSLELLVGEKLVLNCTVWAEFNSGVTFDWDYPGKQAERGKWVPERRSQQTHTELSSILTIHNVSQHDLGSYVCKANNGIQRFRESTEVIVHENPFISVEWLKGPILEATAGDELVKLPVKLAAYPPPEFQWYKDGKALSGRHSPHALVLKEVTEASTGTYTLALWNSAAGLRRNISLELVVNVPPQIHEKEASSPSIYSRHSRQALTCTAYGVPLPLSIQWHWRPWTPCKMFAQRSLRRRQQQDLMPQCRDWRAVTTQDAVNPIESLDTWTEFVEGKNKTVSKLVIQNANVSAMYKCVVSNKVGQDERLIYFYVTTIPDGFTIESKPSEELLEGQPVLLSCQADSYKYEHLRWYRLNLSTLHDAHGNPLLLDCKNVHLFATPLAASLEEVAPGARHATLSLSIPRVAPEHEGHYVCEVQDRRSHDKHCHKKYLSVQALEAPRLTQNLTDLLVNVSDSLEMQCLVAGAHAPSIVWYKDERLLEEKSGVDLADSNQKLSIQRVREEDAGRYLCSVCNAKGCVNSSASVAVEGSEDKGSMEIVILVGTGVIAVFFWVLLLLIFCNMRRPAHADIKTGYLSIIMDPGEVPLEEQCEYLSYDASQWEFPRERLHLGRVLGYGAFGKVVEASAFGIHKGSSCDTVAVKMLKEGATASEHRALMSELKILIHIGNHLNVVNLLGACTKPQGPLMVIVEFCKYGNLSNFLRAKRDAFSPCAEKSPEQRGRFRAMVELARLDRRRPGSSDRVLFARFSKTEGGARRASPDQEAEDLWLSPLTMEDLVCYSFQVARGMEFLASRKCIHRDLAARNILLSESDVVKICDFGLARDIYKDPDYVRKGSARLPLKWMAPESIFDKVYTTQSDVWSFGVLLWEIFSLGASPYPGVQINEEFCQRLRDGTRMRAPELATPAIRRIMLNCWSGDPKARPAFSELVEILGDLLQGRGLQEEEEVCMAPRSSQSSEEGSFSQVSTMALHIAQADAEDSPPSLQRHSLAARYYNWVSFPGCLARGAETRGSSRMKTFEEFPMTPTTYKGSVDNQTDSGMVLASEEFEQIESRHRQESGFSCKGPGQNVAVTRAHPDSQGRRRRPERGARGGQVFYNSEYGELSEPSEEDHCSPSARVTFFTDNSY

[8] = target: Tyrosine-protein kinase ABL1 (Homo sapiens, UniProt P00519); assay: Selectivity interaction (Kinase screening (Nanosyn)) EUB0000604a ABL1
[9] = target: T4, Serine/threonine-protein kinase D3 (Homo sapiens) (UniProt O94806); assay: Selectivity interaction (Kinase screening (Nanosyn)) EUB0000604a PRKD3
T4 sequence (whole entry): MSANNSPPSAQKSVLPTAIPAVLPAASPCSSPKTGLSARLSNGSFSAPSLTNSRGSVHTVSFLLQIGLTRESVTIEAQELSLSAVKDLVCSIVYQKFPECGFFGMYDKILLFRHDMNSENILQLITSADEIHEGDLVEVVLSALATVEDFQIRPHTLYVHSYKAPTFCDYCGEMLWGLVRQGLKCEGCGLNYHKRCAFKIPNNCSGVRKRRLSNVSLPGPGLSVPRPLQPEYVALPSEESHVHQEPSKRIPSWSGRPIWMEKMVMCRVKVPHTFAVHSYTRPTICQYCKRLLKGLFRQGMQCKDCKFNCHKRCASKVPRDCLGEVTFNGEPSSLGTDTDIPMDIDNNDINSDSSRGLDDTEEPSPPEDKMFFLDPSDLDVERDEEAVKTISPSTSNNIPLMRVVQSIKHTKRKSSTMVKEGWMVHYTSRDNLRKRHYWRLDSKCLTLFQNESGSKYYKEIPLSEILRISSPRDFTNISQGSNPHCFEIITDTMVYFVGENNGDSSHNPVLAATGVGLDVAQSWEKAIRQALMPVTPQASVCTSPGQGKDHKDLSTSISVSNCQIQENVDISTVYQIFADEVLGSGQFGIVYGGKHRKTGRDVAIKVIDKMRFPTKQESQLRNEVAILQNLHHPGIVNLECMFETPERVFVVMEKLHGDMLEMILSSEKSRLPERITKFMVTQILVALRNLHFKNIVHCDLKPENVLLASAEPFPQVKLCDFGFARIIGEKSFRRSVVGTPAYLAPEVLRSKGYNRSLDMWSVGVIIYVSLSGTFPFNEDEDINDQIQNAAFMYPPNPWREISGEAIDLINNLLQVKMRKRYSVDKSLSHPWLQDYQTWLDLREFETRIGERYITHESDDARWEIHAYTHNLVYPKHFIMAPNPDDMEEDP

[10] = target: Serine/threonine-protein kinase Nek7 (Homo sapiens) (UniProt Q8TDX7); assay: Selectivity interaction (Ambit KINOMEscan and KiNATiv profiling in Jurkat cells) EUB0000090b NEK7; type: cell-based; conditions: at 1 µM
Serine/threonine-protein kinase Nek7 (Homo sapiens), sequence (Q8TDX7 whole entry, looked up): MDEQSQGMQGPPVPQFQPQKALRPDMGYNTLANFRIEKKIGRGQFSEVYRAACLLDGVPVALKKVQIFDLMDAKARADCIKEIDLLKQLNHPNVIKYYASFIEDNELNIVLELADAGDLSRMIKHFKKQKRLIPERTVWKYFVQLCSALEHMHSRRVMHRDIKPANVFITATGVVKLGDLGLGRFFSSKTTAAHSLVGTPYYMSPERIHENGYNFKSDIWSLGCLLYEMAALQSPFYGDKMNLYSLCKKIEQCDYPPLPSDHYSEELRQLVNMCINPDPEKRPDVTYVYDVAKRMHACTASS

[11] = target: Microtubule-associated serine/threonine-protein kinase 1 (Homo sapiens) (UniProt Q9Y2H9); assay: Selectivity interaction (KinomeScan (DiscoverX)) EUB0001079a MAST1; conditions: at 1 µM
Microtubule-associated serine/threonine-protein kinase 1 (Homo sapiens), sequence (Q9Y2H9 whole entry, looked up): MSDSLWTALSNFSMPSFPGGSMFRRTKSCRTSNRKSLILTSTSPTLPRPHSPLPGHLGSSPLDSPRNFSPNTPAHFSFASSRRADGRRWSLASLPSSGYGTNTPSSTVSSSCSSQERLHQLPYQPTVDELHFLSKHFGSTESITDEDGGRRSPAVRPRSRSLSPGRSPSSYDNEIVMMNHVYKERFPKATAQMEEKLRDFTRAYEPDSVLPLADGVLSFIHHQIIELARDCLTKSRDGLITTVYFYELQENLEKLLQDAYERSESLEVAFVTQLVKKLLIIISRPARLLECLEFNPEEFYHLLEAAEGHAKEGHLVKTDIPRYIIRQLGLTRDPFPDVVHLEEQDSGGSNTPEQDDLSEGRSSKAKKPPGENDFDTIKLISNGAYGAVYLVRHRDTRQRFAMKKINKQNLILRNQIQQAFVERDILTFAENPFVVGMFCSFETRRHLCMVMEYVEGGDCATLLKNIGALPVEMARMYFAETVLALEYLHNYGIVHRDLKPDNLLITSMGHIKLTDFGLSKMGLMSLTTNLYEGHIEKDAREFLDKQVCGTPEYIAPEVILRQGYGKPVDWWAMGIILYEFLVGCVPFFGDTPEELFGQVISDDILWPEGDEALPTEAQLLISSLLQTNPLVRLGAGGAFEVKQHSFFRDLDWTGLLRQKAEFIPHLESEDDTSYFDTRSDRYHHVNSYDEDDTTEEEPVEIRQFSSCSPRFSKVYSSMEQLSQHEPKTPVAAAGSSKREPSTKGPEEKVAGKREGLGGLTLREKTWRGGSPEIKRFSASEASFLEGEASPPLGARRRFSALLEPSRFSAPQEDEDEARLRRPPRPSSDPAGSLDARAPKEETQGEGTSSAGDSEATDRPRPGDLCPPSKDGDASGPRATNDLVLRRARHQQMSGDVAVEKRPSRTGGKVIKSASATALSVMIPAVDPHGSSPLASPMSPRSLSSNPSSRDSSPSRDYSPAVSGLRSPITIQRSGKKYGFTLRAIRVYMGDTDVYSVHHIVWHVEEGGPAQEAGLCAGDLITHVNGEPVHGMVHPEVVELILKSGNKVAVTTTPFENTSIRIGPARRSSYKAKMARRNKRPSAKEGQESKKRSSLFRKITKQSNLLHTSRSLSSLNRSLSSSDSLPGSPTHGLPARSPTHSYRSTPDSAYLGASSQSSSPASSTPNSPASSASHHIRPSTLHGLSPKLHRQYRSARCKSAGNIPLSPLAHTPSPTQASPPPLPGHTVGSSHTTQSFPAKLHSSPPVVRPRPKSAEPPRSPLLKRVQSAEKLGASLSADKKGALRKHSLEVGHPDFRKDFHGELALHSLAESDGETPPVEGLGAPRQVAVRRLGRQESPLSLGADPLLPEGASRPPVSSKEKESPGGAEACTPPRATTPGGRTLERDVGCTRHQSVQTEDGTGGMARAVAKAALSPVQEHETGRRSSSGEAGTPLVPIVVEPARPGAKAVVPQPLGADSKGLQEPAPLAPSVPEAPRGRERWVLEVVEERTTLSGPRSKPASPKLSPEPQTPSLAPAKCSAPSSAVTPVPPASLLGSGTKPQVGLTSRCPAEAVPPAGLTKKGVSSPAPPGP

[12] = target: Dual specificity mitogen-activated protein kinase kinase 1 (Homo sapiens, UniProt Q02750); assay: Selectivity interaction (KinomeScan (DiscoverX)) EUB0001550a MAP2K1; conditions: at 1 µM
Dual specificity mitogen-activated protein kinase kinase 1, sequence (Q02750 whole entry): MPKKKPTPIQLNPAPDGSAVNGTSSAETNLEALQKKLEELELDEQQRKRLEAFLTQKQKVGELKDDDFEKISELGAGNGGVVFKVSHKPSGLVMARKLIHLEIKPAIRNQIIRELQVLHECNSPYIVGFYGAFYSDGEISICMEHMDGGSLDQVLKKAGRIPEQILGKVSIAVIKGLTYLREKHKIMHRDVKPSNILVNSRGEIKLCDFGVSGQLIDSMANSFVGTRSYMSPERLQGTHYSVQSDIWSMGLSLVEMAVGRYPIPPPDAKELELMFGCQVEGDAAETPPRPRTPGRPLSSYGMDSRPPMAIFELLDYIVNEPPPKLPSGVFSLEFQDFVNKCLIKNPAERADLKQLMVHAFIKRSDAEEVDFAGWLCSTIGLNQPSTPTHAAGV

[13] = target: T3, Vascular endothelial growth factor receptor 3; assay: Selectivity interaction (KinomeScan (DiscoverX)) EUB0000229b FLT4; conditions: at 10 µM
[14] = target: Serine/threonine-protein kinase 33 (Homo sapiens) (UniProt Q9BYT3); assay: Selectivity interaction (KinomeScan (DiscoverX)) EUB0000618a STK33; conditions: at 10 µM
Serine/threonine-protein kinase 33 (Homo sapiens), sequence (Q9BYT3 whole entry, looked up): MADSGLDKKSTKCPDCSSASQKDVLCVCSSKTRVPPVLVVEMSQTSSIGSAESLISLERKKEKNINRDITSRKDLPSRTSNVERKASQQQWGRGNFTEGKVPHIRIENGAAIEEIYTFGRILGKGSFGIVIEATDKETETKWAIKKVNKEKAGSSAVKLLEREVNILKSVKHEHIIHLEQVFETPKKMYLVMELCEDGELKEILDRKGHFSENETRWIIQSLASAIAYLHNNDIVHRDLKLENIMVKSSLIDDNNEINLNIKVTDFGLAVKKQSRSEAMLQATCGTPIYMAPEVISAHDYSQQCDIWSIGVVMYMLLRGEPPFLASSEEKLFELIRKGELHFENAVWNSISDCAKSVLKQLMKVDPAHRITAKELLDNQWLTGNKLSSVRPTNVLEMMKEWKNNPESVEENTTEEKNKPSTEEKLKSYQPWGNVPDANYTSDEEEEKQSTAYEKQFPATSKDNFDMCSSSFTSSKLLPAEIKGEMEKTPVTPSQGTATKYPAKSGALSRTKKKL

G protein-coupled receptor kinase 4 (Homo sapiens), sequence (P32298 whole entry, looked up): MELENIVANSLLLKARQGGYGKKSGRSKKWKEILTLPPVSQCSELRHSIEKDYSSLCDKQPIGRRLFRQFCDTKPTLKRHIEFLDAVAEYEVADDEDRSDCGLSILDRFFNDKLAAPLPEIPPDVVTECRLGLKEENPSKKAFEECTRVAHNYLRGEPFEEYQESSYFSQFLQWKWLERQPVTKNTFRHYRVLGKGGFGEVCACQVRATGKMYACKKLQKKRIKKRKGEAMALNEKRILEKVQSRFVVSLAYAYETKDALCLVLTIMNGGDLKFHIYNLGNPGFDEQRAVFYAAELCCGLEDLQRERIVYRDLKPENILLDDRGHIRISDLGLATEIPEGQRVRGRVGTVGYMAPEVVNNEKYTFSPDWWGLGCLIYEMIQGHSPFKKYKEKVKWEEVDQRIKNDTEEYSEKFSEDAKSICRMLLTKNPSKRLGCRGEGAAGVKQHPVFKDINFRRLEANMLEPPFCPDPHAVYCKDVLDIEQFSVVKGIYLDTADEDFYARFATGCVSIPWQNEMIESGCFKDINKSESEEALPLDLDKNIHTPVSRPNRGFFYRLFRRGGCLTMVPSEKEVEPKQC

Q: For `Cn1cc(-n2cnc3c(NCc4nc5cc(Cl)c(Cl)cc5[nH]4)nc(N4CCOCC4)nc32)cn1`, which % of control [1] is on record?
A: 0.672%

Q: `CCC(=O)N1CC[C@H](Nc2ncnc3c2CN(c2cnc(OC)c(C(F)(F)F)c2)CC3)C1` [LENIOLISIB] was tested. Which IC50 [2] did it give?
A: > 10 µM

Q: With `CCN(CC)CCCCNc1ncc2cc(-c3cc(OC)cc(OC)c3)c(NC(=O)NC(C)(C)C)nc2n1` as the compound, how does the % of control [3] read?
A: 100%

Q: For `CC[C@@H]1[C@H](F)C(=O)N[C@@H]1COc1nccc2cc(C(N)=O)c(OC)cc12` [ZIMLOVISERTIB], which % of inhibition [4] is on record?
A: -5.8%

Q: What about the % of inhibition [5] of the same compound?
A: -7%

Q: Which % of control ([6]; at 1 µM) does the source give for `C=CC(=O)Nc1cccc(C(=O)Nc2ccc(Nc3cc(-c4[nH]c(SC)nc4C)ccn3)cc2)c1` here?
A: 103%

Q: What about the % of control ([6]; at 5 µM) of the same compound?
A: 87%

Q: For `Cc1cc(F)c(C(=O)Nc2cccc(-c3nncn3C(C)C)n2)cc1-n1cnc(C2CC2)c1`, which % of control [7] is on record?
A: 100%

Q: How did the % of inhibition [8] turn out when `Cc1cnc(Nc2ccc(F)cc2Cl)nc1-c1c[nH]c(C(=O)N[C@H](CO)c2cccc(Cl)c2)c1` was run?
A: 3%

Q: And the % of inhibition [9]?
A: 21%

Q: Which % of control [10] does the source give for `CN(C)C/C=C/C(=O)Nc1ccc(C(=O)N2CCCC(Nc3ncc(Cl)c(-c4c[nH]c5ccccc45)n3)C2)cc1` (stereo not given) here?
A: 91%

Q: How did the % of control [11] turn out when `Nc1cnc(N2CCc3cc(S(=O)(=O)Nc4c(F)cc(Cl)cc4F)cc(N4CCCC4=O)c32)nc1` [TP-020n] was run?
A: 97%

Q: With `CN(C)CC#Cc1ccc2[nH]c3c(c2c1)-c1nc(N)ncc1CCC3` as the compound, how does the % of control [12] read?
A: 4.5%

Q: Which % binding [13] does the source give for `COc1cc(N(C)c2ccnc3ccc(C(F)(F)F)cc23)cc(OC)c1OC` here?
A: 96%

Q: For `O[C@H]1CC[C@H](Nc2ncc3nc(Nc4c(F)cc(F)cc4F)n([C@H]4CCOC4)c3n2)CC1`, which % of control [14] is on record?
A: 100%
